# Measured values from the supplement of paper PMC10307832.
# Columns and labels:
# Experiment in all cases: relative viability (nuclei count vs DMSO), 5 days (fraction); higher = more cells survive
# CX-5461 + Linsitinib = compound: Cc1cnc(CNC(=O)c2c(=O)c3ccc(N4CCCN(C)CC4)nc3n3c2sc2ccccc23)cn1 [CX-5461] + C[C@]1(O)C[C@@H](c2nc(-c3ccc4ccc(-c5ccccc5)nc4c3)c3c(N)nccn32)C1 [Linsitinib] (partner 1 µM)
# Outline: (§1)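 Each reported value is a median over duplicate plates. It expresses relative viability: treated-well nuclei count divided by vehicle-well nuclei count. Lung cancer cell lines in 1536-well plates were dosed by pin tool a day after seeding, alone with one drug or with a fixed anchor-drug dose plus five library-drug doses (not always all listed) in √10 steps, and nuclei were counted after 5 days.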
# IMD-0354 + Crizotinib = compound: O=C(Nc1cc(C(F)(F)F)cc(C(F)(F)F)c1)c1cc(Cl)ccc1O [IMD-0354] + C[C@@H](Oc1cc(-c2cnn(C3CCNCC3)c2)cnc1N)c1c(Cl)ccc(F)c1Cl [Crizotinib] (partner 1 µM)
# Outline: as §1
# IMD-0354 + Pemetrexed = compound: O=C(Nc1cc(C(F)(F)F)cc(C(F)(F)F)c1)c1cc(Cl)ccc1O [IMD-0354] + Nc1nc2[nH]cc(CCc3ccc(C(=O)N[C@@H](CCC(=O)O)C(=O)O)cc3)c2c(=O)[nH]1 [Pemetrexed] (partner 0.2 µM)
# Outline: as §1
# IMD-0354 + Olaparib = compound: O=C(Nc1cc(C(F)(F)F)cc(C(F)(F)F)c1)c1cc(Cl)ccc1O [IMD-0354] + O=C(c1cc(Cc2n[nH]c(=O)c3ccccc23)ccc1F)N1CCN(C(=O)C2CC2)CC1 [Olaparib] (partner 8 µM)
# Outline: as §1
Cell Line,relative viability (CX-5461 + Linsitinib; first compound 0.01 µM),relative viability (CX-5461 + Linsitinib; first compound 0.03162 µM),relative viability (CX-5461 + Linsitinib; first compound 0.1 µM),relative viability (CX-5461 + Linsitinib; first compound 0.3162 µM),relative viability (CX-5461 + Linsitinib; first compound 1 µM),relative viability (IMD-0354 + Crizotinib; first compound 0.04 µM),relative viability (IMD-0354 + Crizotinib; first compound 0.1265 µM),relative viability (IMD-0354 + Crizotinib; first compound 0.4 µM),relative viability (IMD-0354 + Crizotinib; first compound 1.265 µM),relative viability (IMD-0354 + Crizotinib; first compound 4 µM),relative viability (IMD-0354 + Pemetrexed; first compound 0.04 µM),relative viability (IMD-0354 + Pemetrexed; first compound 0.1265 µM),relative viability (IMD-0354 + Pemetrexed; first compound 0.4 µM),relative viability (IMD-0354 + Pemetrexed; first compound 1.265 µM),relative viability (IMD-0354 + Pemetrexed; first compound 4 µM),relative viability (IMD-0354 + Olaparib; first compound 0.04 µM),relative viability (IMD-0354 + Olaparib; first compound 0.1265 µM),relative viability (IMD-0354 + Olaparib; first compound 0.4 µM),relative viability (IMD-0354 + Olaparib; first compound 1.265 µM),relative viability (IMD-0354 + Olaparib; first compound 4 µM)
NCI-H1975,1.06,0.983,0.784,1,0.629,1.15,0.959,0.546,0.211,0.192,0.292,0.311,0.234,0.175,0.157,1.07,0.912,0.437,0.191,0.18
CAL-12T,0.874,1.05,0.843,0.868,0.622,0.855,0.472,0.395,0.16,0.214,1.37,0.916,0.574,0.559,0.204,0.728,0.705,0.492,0.181,0.203
HCC-44,0.734,0.681,0.685,0.676,0.644,0.893,0.785,0.361,0.169,0.169,0.733,0.692,0.595,0.354,0.344,0.994,1.04,0.571,0.789,0.296
EKVX,1.19,1.02,0.962,–,0.962,1.01,0.993,–,1.07,0.246,0.456,0.347,–,0.234,0.201,0.964,0.755,–,0.634,0.204
NCI-H1651,–,0.755,–,0.714,0.11,0.765,0.87,0.575,0.609,0.128,0.653,0.647,0.38,0.14,0.116,0.189,0.196,0.177,0.177,0.124
NCI-H2170,–,–,–,–,–,1.3,1.39,0.574,1.2,0.33,0.275,0.302,0.235,0.286,0.191,0.531,0.647,0.421,0.561,0.185
NCI-H1703,0.374,1.22,0.898,0.223,0.423,0.9,0.626,0.494,0.254,0.215,–,–,–,–,–,0.405,0.468,0.358,0.108,0.0868
Calu-6,1.02,0.952,0.986,0.827,0.51,0.842,0.689,0.506,0.276,0.164,–,–,–,–,–,0.555,0.57,0.428,0.138,0.111
EBC-1,0.988,1.04,1.04,0.859,0.753,0.19,0.204,0.208,0.209,0.177,–,–,–,–,–,0.616,0.661,0.503,0.183,0.171
